Read-outs that look alike come from different tables or passages of the source.
Columns and labels:
[1] = tested on: Klebsiella pneumoniae EK-6; assay: Minimal inhibitory concentration, standard agar dilution method (Klebsiella pneumoniae); format: cell-based
Experimental: (§1) Minimal inhibitory concentration (MIC) was determined by the standard agar dilution method of the Japan Society of Chemotherapy.
(§2) The compounds described in Examples 1, 2 and 5 were dissolved in sterilized water; the compound described in Example 4 was dissolved in acetone-water (1:1); and the control compounds, cephaloglycin and cephalexin monohydrate, were dissolved in a 3% sodium hydrogen carbonate solution.
(§3) Serial two-fold dilutions were made from the above solutions.
(§4) One-ml aliquots of each dilution were mixed with 9 ml of Heart influsion agar in petri-dishes to make agar plates containing the compound at serially diluted concentrations. After agar hardened, plates were put in an incubator at 37° C. for 1.5-2 hours with the lids slightly open to evaporate acetone off the plates.
(§5) Test organisms were grown for 18 hours at 37° C. in Trypticase Soy broth and diluted in saline to approximately 10^6 colony forming units per ml. A loopful of each cell suspension was applied on the agar plate mentioned above and the plates were incubated for 18 hours at 37° C. before MIC was determined.
(§6) MIC values of the compounds described in Examples 1, 2 and 5 were determined as their sodium salts and the compound described in Example 4 was determined as a free carboxylic acid.

[2] = tested on: Staphylococcus aureus 209P; assay: Minimal inhibitory concentration, standard agar dilution method (Staphylococcus aureus); format: cell-based
Experimental: as §1, §2, §3, §4, §5, §6

[3] = tested on: Escherichia coli NIHJ; assay: Minimal inhibitory concentration, standard agar dilution method (Escherichia coli); format: cell-based
Experimental: as §1, §2, §3, §4, §5, §6

[4] = tested on: Proteus morganii EP-14; assay: Minimal inhibitory concentration, standard agar dilution method (Proteus morganii); format: cell-based; conditions: Morganella morganii
Experimental: as §1, §2, §3, §4, §5, §6

[5] = tested on: Pseudomonas aeruginosa EP-172; assay: Minimal inhibitory concentration, standard agar dilution method (Pseudomonas aeruginosa); format: cell-based
Experimental: as §1, §2, §3, §4, §5, §6

[6] = tested on: Serratia marcescens ES-75; assay: Minimal inhibitory concentration, standard agar dilution method (Serratia marcescens); format: cell-based
Experimental: as §1, §2, §3, §4, §5, §6

[7] = acute toxicity test (mouse, oral); conditions: in vivo
Description: Moreover, it has been confirmed that the compounds of this invention show low toxicity in the toxicity test. For example, the acute toxicity values [LD50 (mouse, oral)] for the following compounds were over 5 g/kg: […]

[8] = EK6, Klebsiella pneumoniae EK-6, agar dilution, 18 hours at 37° C., Examples 1, 2, 5 as sodium salts, Example 4 as free acid, read-out: MIC
[9] = Staphylococcus aureus 209P, agar dilution, 18 hours at 37° C., Examples 1, 2, 5 as sodium salts, Example 4 as free acid, read-out: MIC
[10] = Escherichia coli NIHJ, agar dilution, 18 hours at 37° C., Examples 1, 2, 5 as sodium salts, Example 4 as free acid, read-out: MIC
[11] = EP14, Proteus morganii EP-14, agar dilution, 18 hours at 37° C., Examples 1, 2, 5 as sodium salts, Example 4 as free acid, read-out: MIC
[12] = EP172, Pseudomonas aeruginosa EP-172, agar dilution, 18 hours at 37° C., Examples 1, 2, 5 as sodium salts, Example 4 as free acid, read-out: MIC
[13] = ES75, Serratia marcescens ES-75, agar dilution, 18 hours at 37° C., Examples 1, 2, 5 as sodium salts, Example 4 as free acid, read-out: MIC

| SMILES | MIC [1, 8] | MIC [2, 9] | MIC [3, 10] | MIC [4, 11] | MIC [5, 12] | MIC [6, 13] | LD50 [7] | MIC ([1]; Klebsiella pneumoniae, EK6, 18 h) | MIC ([2]; Staphylococcus aureus, 209P, 18 h) | MIC ([3]; Escherichia coli, 18 h) | MIC ([4]; EP14, 18 h) | MIC ([5]; Pseudomonas aeruginosa, EP172, 18 h) | MIC ([6]; Serratia marcescens, ES75, 18 h) |
| --- | --- | --- | --- | --- | --- | --- | --- | --- | --- | --- | --- | --- | --- |
| CC(=O)OCC1=C(C(=O)O)N2C(=O)[C@@H](NC(=O)[C@H](N)c3ccccc3)[C@H]2SC1 [Cephaloglycin, cephaloglycin, reference compound] | 1.56 µg/mL | 0.8 µg/mL | 3.13 µg/mL | 25 µg/mL | > 100 µg/mL | > 100 µg/mL |  |  |  |  |  |  |  |
| CC(=O)OCC1=C(C(=O)O)N2C(=O)[C@@H](NC(=O)[C@H](NC(=O)c3coc4c(O)c(O)ccc4c3=O)c3ccccc3)[C@H]2SC1 [Example 5, 7β-[D-2-(7,8-Dihydroxychromone-3-carboxamido)-2-phenylacetamido]-3-acetoxymethyl-3-cephem-4-carboxylic acid] | 0.2 µg/mL | 1.56 µg/mL | 3.13 µg/mL | 12.5 µg/mL | 1.56 µg/mL | 1.56 µg/mL |  |  |  |  |  |  |  |
| CC(=O)OCC1=C(C(=O)O)N2C(=O)[C@@H](NC(=O)[C@H](NC(=O)c3coc4cc(O)c(O)cc4c3=O)c3ccccc3)[C@H]2SC1 [Example 2, 7β-[D-2-(6,7-Dihydroxychromone-3-carboxamido)-2-phenylacetamido]-3-acetoxymethyl-3cephem-4-carboxylic acid] | ≤ 0.1 µg/mL | 1.56 µg/mL | 0.8 µg/mL | 12.5 µg/mL | 0.8 µg/mL | 0.2 µg/mL | > 5000 mg/kg |  |  |  |  |  |  |
| CC(=O)OCC1=C(C(=O)O)N2C(=O)[C@@H](NC(=O)[C@H](NC(=O)c3coc4c(OC(C)=O)c(OC(C)=O)ccc4c3=O)c3ccccc3)[C@H]2SC1 [Example 4, 7β-[D-2-(7,8-Diacetoxychromone-3-carboxamido)-2-phenylacetamido]-3-acetoxymethyl-3-cephem-4-carboxylic acid] | ≤ 0.1 µg/mL | 1.56 µg/mL | 0.8 µg/mL | 3.13 µg/mL | 1.56 µg/mL | 0.8 µg/mL |  |  |  |  |  |  |  |
| CC(=O)OCC1=C(C(=O)O)N2C(=O)[C@@H](NC(=O)[C@H](NC(=O)c3coc4cc(OC(C)=O)c(OC(C)=O)cc4c3=O)c3ccccc3)[C@H]2SC1 [Example 1, 7β-[D-2-(6,7-Diacetoxychromone-3-carboxamido)-2-phenylacetamido]-3-acetoxymethyl-3-cephem-4-carboxylic acid] | ≤ 0.1 µg/mL | 3.13 µg/mL | 1.56 µg/mL | 50 µg/mL | 0.8 µg/mL | 0.4 µg/mL |  |  |  |  |  |  |  |
| CC1=C(C(=O)O)N2C(=O)[C@@H](NC(=O)[C@H](N)c3ccccc3)[C@H]2SC1 [Cephalexin mono-hydrate, cephalexin monohydrate, reference compound] |  |  |  |  |  |  |  | 3.13 µg/mL | 1.56 µg/mL | 6.25 µg/mL | > 100 µg/mL | > 100 µg/mL | > 100 µg/mL |

— patent publication US4285939A, “Cephalosporin derivatives, and antibacterial drugs containing the derivatives” (Eisai Co., Ltd., priority 1979, dated 1981)
